From the NIST ThermoML archive (doi:10.1016/j.jct.2005.03.012)
± gives the expanded uncertainty stated by the source.

Assay: excess molar enthalpy (molar enthalpy of mixing); xn = mol fraction of the nth substance listed
Conditions: Liquid

For `CO` [methanol] + O, the excess molar enthalpy (505.01 K, 10000 kPa, x1 = 0.2) was 0.0844 ± 0.00335 kcal/mol, the excess molar enthalpy (505.63 K, 10000 kPa, x1 = 0.6) was 0.0984 ± 0.00382 kcal/mol and the excess molar enthalpy (505.93 K, 8500 kPa, x1 = 0.3) was 0.0752 ± 0.00311 kcal/mol. It also gave an excess molar enthalpy (506.02 K, 8500 kPa, x1 = 0.2) of 0.0617 ± 0.00263 kcal/mol, an excess molar enthalpy (506.29 K, 8500 kPa, x1 = 0.4) of 0.0736 ± 0.00311 kcal/mol and an excess molar enthalpy (506.52 K, 10000 kPa, x1 = 0.2) of 0.0828 ± 0.00335 kcal/mol. The excess molar enthalpy (506.53 K, 10000 kPa, x1 = 0.4) was 0.108 ± 0.00406 kcal/mol, the excess molar enthalpy (506.59 K, 8500 kPa, x1 = 0.1) was 0.0371 ± 0.00189 kcal/mol and the excess molar enthalpy (506.7 K, 8500 kPa, x1 = 0.5) was 0.0603 ± 0.00263 kcal/mol. It also gave an excess molar enthalpy (507.3 K, 8500 kPa, x1 = 0.6) of 0.0391 ± 0.00201 kcal/mol, an excess molar enthalpy (507.4 K, 10000 kPa, x1 = 0.8) of 0.0512 ± 0.00232 kcal/mol and an excess molar enthalpy (507.5 K, 10000 kPa, x1 = 0.6) of 0.093 ± 0.00359 kcal/mol. The excess molar enthalpy (507.82 K, 8500 kPa, x1 = 0.7) was 0.0164 ± 0.00165 kcal/mol, the excess molar enthalpy (507.86 K, 8500 kPa, x1 = 0.1) was 0.0344 ± 0.00182 kcal/mol and the excess molar enthalpy (508.01 K, 8500 kPa, x1 = 0.2) was 0.0531 ± 0.00239 kcal/mol. The excess molar enthalpy (508.15 K, 8500 kPa, x1 = 0.1) was 0.0342 ± 0.00182 kcal/mol, the excess molar enthalpy (508.15 K, 8500 kPa, x1 = 0.2) was 0.0525 ± 0.00237 kcal/mol and the excess molar enthalpy (508.15 K, 8500 kPa, x1 = 0.3) was 0.0606 ± 0.00263 kcal/mol. It also gave an excess molar enthalpy (508.15 K, 8500 kPa, x1 = 0.4) of 0.0578 ± 0.00263 kcal/mol, an excess molar enthalpy (508.15 K, 8500 kPa, x1 = 0.5) of 0.0455 ± 0.00215 kcal/mol and an excess molar enthalpy (508.15 K, 8500 kPa, x1 = 0.6) of 0.0288 ± 0.00179 kcal/mol. For the same compound, the excess molar enthalpy (508.15 K, 8500 kPa, x1 = 0.7) was 0.012 ± 0.00167 kcal/mol, the excess molar enthalpy (508.15 K, 8500 kPa, x1 = 0.8) was -0.00588 ± 0.00174 kcal/mol and the excess molar enthalpy (508.15 K, 8500 kPa, x1 = 0.9) was -0.0143 ± 0.00179 kcal/mol. For the same compound, the excess molar enthalpy (508.15 K, 10000 kPa, x1 = 0.2) was 0.0818 ± 0.00335 kcal/mol, the excess molar enthalpy (508.15 K, 10000 kPa, x1 = 0.4) was 0.103 ± 0.00382 kcal/mol and the excess molar enthalpy (508.15 K, 10000 kPa, x1 = 0.6) was 0.0886 ± 0.00359 kcal/mol. For the same compound, the excess molar enthalpy (508.15 K, 10000 kPa, x1 = 0.8) was 0.0489 ± 0.00225 kcal/mol, the excess molar enthalpy (508.29 K, 8500 kPa, x1 = 0.8) was -0.00834 ± 0.00179 kcal/mol and the excess molar enthalpy (508.45 K, 8500 kPa, x1 = 0.9) was -0.0172 ± 0.00189 kcal/mol. For the same compound, the excess molar enthalpy (508.63 K, 10000 kPa, x1 = 0.8) was 0.0472 ± 0.00232 kcal/mol, the excess molar enthalpy (508.68 K, 8500 kPa, x1 = 0.4) was 0.0514 ± 0.00234 kcal/mol and the excess molar enthalpy (509.15 K, 8500 kPa, x1 = 0.3) was 0.0516 ± 0.00234 kcal/mol. It also gave an excess molar enthalpy (509.29 K, 8500 kPa, x1 = 0.5) of 0.03 ± 0.00167 kcal/mol, an excess molar enthalpy (509.71 K, 10000 kPa, x1 = 0.2) of 0.0786 ± 0.00311 kcal/mol and an excess molar enthalpy (509.71 K, 10000 kPa, x1 = 0.6) of 0.0815 ± 0.00335 kcal/mol. The excess molar enthalpy (509.71 K, 10000 kPa, x1 = 0.8) was 0.0423 ± 0.0022 kcal/mol, the excess molar enthalpy (509.91 K, 8500 kPa, x1 = 0.1) was 0.0298 ± 0.00167 kcal/mol and the excess molar enthalpy (509.91 K, 8500 kPa, x1 = 0.2) was 0.0434 ± 0.00208 kcal/mol. It also gave an excess molar enthalpy (509.91 K, 8500 kPa, x1 = 0.3) of 0.0466 ± 0.00217 kcal/mol, an excess molar enthalpy (509.91 K, 8500 kPa, x1 = 0.4) of 0.0384 ± 0.00194 kcal/mol and an excess molar enthalpy (509.91 K, 8500 kPa, x1 = 0.5) of 0.0221 ± 0.00146 kcal/mol. It also gave an excess molar enthalpy (509.91 K, 8500 kPa, x1 = 0.6) of 0.00275 ± 0.00127 kcal/mol, an excess molar enthalpy (509.91 K, 8500 kPa, x1 = 0.7) of -0.0163 ± 0.00174 kcal/mol and an excess molar enthalpy (509.91 K, 8500 kPa, x1 = 0.8) of -0.0325 ± 0.00227 kcal/mol. The excess molar enthalpy (509.91 K, 8500 kPa, x1 = 0.9) was -0.037 ± 0.00237 kcal/mol, the excess molar enthalpy (510.17 K, 8500 kPa, x1 = 0.7) was -0.0212 ± 0.00182 kcal/mol and the excess molar enthalpy (510.19 K, 10000 kPa, x1 = 0.3) was 0.0908 ± 0.00645 kcal/mol. For the same compound, the excess molar enthalpy (510.22 K, 8500 kPa, x1 = 0.6) was 0.00151 ± 0.0012 kcal/mol, the excess molar enthalpy (510.22 K, 8500 kPa, x1 = 0.8) was -0.0352 ± 0.00239 kcal/mol and the excess molar enthalpy (510.43 K, 10000 kPa, x1 = 0.4) was 0.0943 ± 0.00741 kcal/mol. For the same compound, the excess molar enthalpy (510.63 K, 10000 kPa, x1 = 0.2) was 0.0733 ± 0.00454 kcal/mol, the excess molar enthalpy (510.71 K, 8500 kPa, x1 = 0.9) was -0.0418 ± 0.00263 kcal/mol and the excess molar enthalpy (510.88 K, 10000 kPa, x1 = 0.5) was 0.0876 ± 0.00765 kcal/mol. The excess molar enthalpy (511.51 K, 10000 kPa, x1 = 0.1) was 0.0425 ± 0.00263 kcal/mol, the excess molar enthalpy (511.67 K, 10000 kPa, x1 = 0.6) was 0.0678 ± 0.00669 kcal/mol and the excess molar enthalpy (512.18 K, 10000 kPa, x1 = 0.7) was 0.0484 ± 0.00526 kcal/mol. For the same compound, the excess molar enthalpy (512.47 K, 10000 kPa, x1 = 0.5) was 0.0767 ± 0.00574 kcal/mol, the excess molar enthalpy (512.6 K, 10000 kPa, x1 = 0.4) was 0.0828 ± 0.00526 kcal/mol and the excess molar enthalpy (512.67 K, 10000 kPa, x1 = 0.8) was 0.0257 ± 0.00311 kcal/mol. The excess molar enthalpy (512.9 K, 10000 kPa, x1 = 0.3) was 0.0793 ± 0.00454 kcal/mol, the excess molar enthalpy (512.9 K, 10000 kPa, x1 = 0.9) was 0.00574 ± 0.00127 kcal/mol and the excess molar enthalpy (513.15 K, 8500 kPa, x1 = 0.1) was 0.011 ± 0.0055 kcal/mol. The excess molar enthalpy (513.15 K, 8500 kPa, x1 = 0.2) was 0.00782 ± 0.00574 kcal/mol, the excess molar enthalpy (513.15 K, 8500 kPa, x1 = 0.3) was -0.012 ± 0.00574 kcal/mol and the excess molar enthalpy (513.15 K, 8500 kPa, x1 = 0.4) was -0.0294 ± 0.00598 kcal/mol. It also gave an excess molar enthalpy (513.15 K, 8500 kPa, x1 = 0.5) of -0.0556 ± 0.00693 kcal/mol, an excess molar enthalpy (513.15 K, 8500 kPa, x1 = 0.6) of -0.0928 ± 0.00837 kcal/mol and an excess molar enthalpy (513.15 K, 8500 kPa, x1 = 0.7) of -0.14 ± 0.01 kcal/mol. The excess molar enthalpy (513.15 K, 8500 kPa, x1 = 0.8) was -0.164 ± 0.011 kcal/mol, the excess molar enthalpy (513.15 K, 8500 kPa, x1 = 0.9) was -0.155 ± 0.01 kcal/mol and the excess molar enthalpy (513.15 K, 10000 kPa, x1 = 0.1) was 0.0396 ± 0.00201 kcal/mol. It also gave an excess molar enthalpy (513.15 K, 10000 kPa, x1 = 0.2) of 0.0663 ± 0.00287 kcal/mol, an excess molar enthalpy (513.15 K, 10000 kPa, x1 = 0.3) of 0.0779 ± 0.00311 kcal/mol and an excess molar enthalpy (513.15 K, 10000 kPa, x1 = 0.4) of 0.0799 ± 0.00311 kcal/mol. For the same compound, the excess molar enthalpy (513.15 K, 10000 kPa, x1 = 0.5) was 0.0728 ± 0.00311 kcal/mol, the excess molar enthalpy (513.15 K, 10000 kPa, x1 = 0.6) was 0.0598 ± 0.00263 kcal/mol and the excess molar enthalpy (513.15 K, 10000 kPa, x1 = 0.7) was 0.0408 ± 0.00215 kcal/mol. It also gave an excess molar enthalpy (513.15 K, 10000 kPa, x1 = 0.8) of 0.0228 ± 0.00172 kcal/mol, an excess molar enthalpy (513.15 K, 10000 kPa, x1 = 0.9) of 0.00569 ± 0.00146 kcal/mol and an excess molar enthalpy (513.61 K, 10000 kPa, x1 = 0.2) of 0.0641 ± 0.00406 kcal/mol. The excess molar enthalpy (513.87 K, 10000 kPa, x1 = 0.1) was 0.0385 ± 0.00217 kcal/mol, the excess molar enthalpy (513.88 K, 10000 kPa, x1 = 0.6) was 0.0498 ± 0.00478 kcal/mol and the excess molar enthalpy (514.32 K, 8500 kPa, x1 = 0.1) was -0.00899 ± 0.012 kcal/mol. For the same compound, the excess molar enthalpy (514.32 K, 8500 kPa, x1 = 0.2) was -0.0402 ± 0.0127 kcal/mol, the excess molar enthalpy (514.32 K, 8500 kPa, x1 = 0.3) was -0.0669 ± 0.0141 kcal/mol and the excess molar enthalpy (514.32 K, 8500 kPa, x1 = 0.4) was -0.118 ± 0.0177 kcal/mol. It also gave an excess molar enthalpy (514.32 K, 8500 kPa, x1 = 0.5) of -0.16 ± 0.0191 kcal/mol, an excess molar enthalpy (514.32 K, 8500 kPa, x1 = 0.6) of -0.183 ± 0.0198 kcal/mol and an excess molar enthalpy (514.32 K, 8500 kPa, x1 = 0.7) of -0.214 ± 0.021 kcal/mol. The excess molar enthalpy (514.32 K, 8500 kPa, x1 = 0.8) was -0.247 ± 0.0215 kcal/mol, the excess molar enthalpy (514.32 K, 8500 kPa, x1 = 0.9) was -0.28 ± 0.0206 kcal/mol and the excess molar enthalpy (514.44 K, 10000 kPa, x1 = 0.9) was -0.00217 ± 0.000956 kcal/mol. The excess molar enthalpy (514.48 K, 10000 kPa, x1 = 0.7) was 0.0282 ± 0.00311 kcal/mol, the excess molar enthalpy (514.52 K, 10000 kPa, x1 = 0.8) was 0.0107 ± 0.00177 kcal/mol and the excess molar enthalpy (514.98 K, 10000 kPa, x1 = 0.1) was 0.0354 ± 0.00191 kcal/mol. It also gave an excess molar enthalpy (514.98 K, 10000 kPa, x1 = 0.2) of 0.0587 ± 0.00263 kcal/mol, an excess molar enthalpy (514.98 K, 10000 kPa, x1 = 0.3) of 0.0676 ± 0.00287 kcal/mol and an excess molar enthalpy (514.98 K, 10000 kPa, x1 = 0.4) of 0.0676 ± 0.00287 kcal/mol. For the same compound, the excess molar enthalpy (514.98 K, 10000 kPa, x1 = 0.5) was 0.0582 ± 0.00263 kcal/mol, the excess molar enthalpy (514.98 K, 10000 kPa, x1 = 0.6) was 0.0411 ± 0.00217 kcal/mol and the excess molar enthalpy (514.98 K, 10000 kPa, x1 = 0.7) was 0.0222 ± 0.00167 kcal/mol. For the same compound, the excess molar enthalpy (514.98 K, 10000 kPa, x1 = 0.8) was 0.00755 ± 0.00139 kcal/mol and the excess molar enthalpy (514.98 K, 10000 kPa, x1 = 0.9) was -0.00311 ± 0.00134 kcal/mol.
